Assay results as given in patent publication US6706737B2, “Alkoxy substituted benzimidazole compounds, pharmaceutical preparations containing the same, and methods of using the same” (priority 1999, dated 2004).
“And” between values parts separate entries of the source, which are not always exact repeats. Equal entries are not always repeated.

Assay: Solubility assessment as a function of HPβCD concentration
Assay type: physicochemical
Experimental: Solubility studies were performed by the addition of a known mass of 5(6)-methoxy-2[[(methoxy-3,5-dimethyl-2-pyridinyl)-methyl]sulfinyl]-1H-benzimidazole and/or HP CD to a given volume of solvent system. Solubilities were determined by observation, as the maximum concentration at which 5(6)-methoxy-2-[[(4-methoxy-3,5-dimethyl-2-pyridinyl)-methyl]sulfinyl]-1H-benzimidazole completely dissolved. Additionally, concentrations of 5(6)-methoxy-2-[[(4-methoxy-3,5-dimethyl-2-pyridinyl)methyl]sulfinyl]-1H-benzimidazole and HP CD at set molar ratios were solubilized in systems of high pH (adjusted as high as 12.2, with 1N NaOH), the pH was adjusted (using 2N HCl) in a stepwise downward manner until precipitation occurred.
The solubility of 5(6)-methoxy-2-[[(4-methoxy-3,5-dimethyl-2-pyridinyl)-methyl]sulfinyl]-1H-benzimidazole was assessed as a function of HPβCD concentration in water. […] In general, the solubility of the active ingredient is influenced by solution pH.
The procedure according to Example 86 was repeated except that water with a borate buffer (pH of 8) was employed.
The procedure according to Example 86 was repeated except that water with a phosphate buffer (pH of 11) was employed.

For COc1ccc2[nH]c([S+]([O-])Cc3ncc(C)c(OC)c3C)nc2c1 (stereo not shown) [5(6)-methoxy-2-[[(4-methoxy-3,5-dimethyl-2-pyridinyl)-methyl]sulfinyl]-1H-benzimidazole], the aqueous solubility (water) was “approximately 0.3 mg/mL and ~0.9 mM”, the “solubility as a function of HPβCD concentration” value (“solubility as a function” for short) (water) was “increase linearly” and the “solubility as a function” value (water with a borate buffer (pH of 8)) was “increase linearly”. The “solubility as a function” value (water with a phosphate buffer (pH of 11)) was “increase linearly”.
